Experimental data: ChEMBL document CHEMBL2073992, “Polarized transport of docetaxel and vinblastine mediated by P-glycoprotein in human intestinal epithelial cell monolayers” (Biochem Pharmacol, 1994)

Molecular target: ATP-dependent translocase ABCB1 (Homo sapiens, UniProt P08183)
Assay: TP_TRANSPORTER: transepithelial transport (basal to apical) in Caco-2 cells
Format: functional, cell-based

ATP-dependent translocase ABCB1, sequence (P08183 whole entry): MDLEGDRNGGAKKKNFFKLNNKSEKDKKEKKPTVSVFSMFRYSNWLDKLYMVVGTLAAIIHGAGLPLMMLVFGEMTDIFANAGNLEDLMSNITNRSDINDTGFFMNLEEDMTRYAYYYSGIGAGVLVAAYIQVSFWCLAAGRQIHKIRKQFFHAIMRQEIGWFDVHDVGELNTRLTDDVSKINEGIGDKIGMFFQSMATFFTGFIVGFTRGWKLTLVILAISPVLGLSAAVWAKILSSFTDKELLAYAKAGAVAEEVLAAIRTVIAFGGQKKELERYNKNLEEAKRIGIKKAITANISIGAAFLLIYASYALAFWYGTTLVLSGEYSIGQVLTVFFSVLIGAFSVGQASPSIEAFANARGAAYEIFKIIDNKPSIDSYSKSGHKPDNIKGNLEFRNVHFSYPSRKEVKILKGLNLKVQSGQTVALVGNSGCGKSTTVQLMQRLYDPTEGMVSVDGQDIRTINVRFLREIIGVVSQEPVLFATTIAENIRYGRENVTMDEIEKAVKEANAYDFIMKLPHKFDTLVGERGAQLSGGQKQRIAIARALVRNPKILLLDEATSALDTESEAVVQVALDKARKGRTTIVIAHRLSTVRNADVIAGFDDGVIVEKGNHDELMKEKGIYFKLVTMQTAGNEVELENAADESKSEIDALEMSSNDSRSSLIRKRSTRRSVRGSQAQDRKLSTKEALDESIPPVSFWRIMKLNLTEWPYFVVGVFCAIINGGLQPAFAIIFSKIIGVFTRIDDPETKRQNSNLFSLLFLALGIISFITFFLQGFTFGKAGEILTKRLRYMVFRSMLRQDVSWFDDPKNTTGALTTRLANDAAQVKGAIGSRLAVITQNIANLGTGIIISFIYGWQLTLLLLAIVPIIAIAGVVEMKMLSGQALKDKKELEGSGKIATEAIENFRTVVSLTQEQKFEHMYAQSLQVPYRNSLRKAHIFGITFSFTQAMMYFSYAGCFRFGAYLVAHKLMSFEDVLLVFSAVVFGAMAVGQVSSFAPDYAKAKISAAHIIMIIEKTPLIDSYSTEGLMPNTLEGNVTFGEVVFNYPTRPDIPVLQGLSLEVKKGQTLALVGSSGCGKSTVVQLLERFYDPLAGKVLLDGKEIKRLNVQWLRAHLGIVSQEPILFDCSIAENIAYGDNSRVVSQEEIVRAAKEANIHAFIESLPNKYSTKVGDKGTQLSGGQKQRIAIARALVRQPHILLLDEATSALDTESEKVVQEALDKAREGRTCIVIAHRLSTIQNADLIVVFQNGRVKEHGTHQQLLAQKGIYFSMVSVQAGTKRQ

- Activity: substrate [+]
SMILES: CC(=O)O[C@@]12CO[C@@H]1C[C@H](O)[C@@]1(C)C(=O)[C@H](O)C3=C(C)[C@@H](OC(=O)[C@H](O)[C@@H](NC(=O)OC(C)(C)C)c4ccccc4)C[C@@](O)([C@@H](OC(=O)c4ccccc4)[C@H]21)C3(C)C.O.O.O [DOCETAXEL]
